This passage reports IC50 results from the Kinase Knowledgebase extract (Sharma et al. 2016).

One may read the pIC50 as the negative decadic logarithm of the IC50, by convention in mol/L.

pIC50: −log10 of the molar value.

This assay addresses CDK2 (UniProt P24941). The experiment in a line: Enzyme Assay.

The compound `COc1ccc(CNc2nc(NCCCNC(=O)[C@H]3CSC(=O)N3)nc3c2ncn3C(C)C)cc1` had a pIC50 of 5.70.
